{
  "source": "patent US12180509B2",
  "about": "“Methods for reprograming non-pluripotent cells into pluripotent stem cells” (Beihao Stem Cell and Regenerative Medicine Research …, priority 2015, dated 2024)",
  "key": {"XEN-like cells": {"test_system": "XEN-like cells", "assay": "Transition of XEN-like colonies to CiPSCs (stages 2 and 3)", "format": "cell-based, mouse", "details": "screen of 88 small molecules in the presence of VC6TFA plus DZNep, stage 2 of 12 days", "method": "MEFs, MNFs or MAFs were plated at 300,000 cells per 100 mm dish, or 50,000 cells per well on a 6-well plate. The next day (day 0), the culture was changed into stage 1 medium supplemented with small-molecule cocktail VC6TFAE (0.5 mM VPA, […] CHIR99021, 10 μM 616452, 5 μM Tranylcypromine, 50 µM FSK, 0.05 μM AM580 and 5 μM EPZ004777). […] The cells were harvested and then re-plated at 100,000 cells per well of a 6-well plate (1:15). During days 12-16, the cells were cultured in stage 1 medium supplemented with a modified small-molecule cocktail VC6TFA (0.5 mM VPA, 10 μM CHIR99021, 10 μM 616452, 5 μM Tranylcypromine, 10 μM FSK, 0.05 μM AM580). On day 16, XEN-like epithelial colonies were formed and the culture was changed into stage 2 medium supplemented with small-molecule cocktail VC6TFAZDS (0.5 mM VPA, 10 μM CHIR99021, 10 μM 616452, 5 μM Tranylcypromine, 10 μM FSK, 0.05 μM AM580, 0.05 μM DZNep, 0.5 μM 5-aza-dC and 5 μM SGC0946). On day 28, the culture was transferred into stage 3 medium. […] During CiPSC induction, the medium and small molecules were changed every 4 days.\nStudies were next conducted to identify small molecules that facilitate the transition of XEN-like colonies to CiPSCs during stages 2 and 3. Small-molecule screenings were performed in the presence of small molecule cocktail VC6TFA plus DZNep (Z) for 12 days with successful enhanced generation of CiPSC colonies. […]"}, "[1]": {"test_system": "pluripotency-related genes and XEN marker genes", "assay": "Real-time PCR of pluripotency, XEN and MET genes during chemical reprogramming", "format": "cell-based, mouse", "details": "stage 2, XEN-like cells", "method": "Total RNA from an entire well of cultured cells was isolated using the RNeasy Plus MiniKit (QIAGEN). For a single colony, RNA was isolated using the RNeasy Micro Kit (QIAGEN). RNA was converted to cDNA using TransScript First-Strand cDNA Synthesis SuperMix (TransGen Biotech). PCR was carried out using Power SYBRR Green PCR Master Mix (Applied Biosystems) and performed on an ABI Prism 7300 Sequence Detection System. The data were analyzed using the delta-delta Ct method."}},
  "data": [
    {"smiles": "Nc1ncn([C@H]2C[C@H](O)[C@@H](CO)O2)c(=O)n1", "note": "[5-aza-dC]", "values": [
      {"measurement": "CiPSC colony formation in stage 3", "setting": "XEN-like cells", "value": "CiPSC colonies formed in stage 3 only when the cell culture medium was supplemented with 5-aza-dC"},
      {"measurement": "expression of pluripotency genes (Oct4, Dppa family genes)", "setting": "[1]", "value": "promote the expression of pluripotency genes"}
    ]}
  ]
}
